Measured values from patent publication US20150105252A1, “SUBSTITUTED PYRAZOLES AS HERBICIDES” (E I DU PONT DE NEMOURS AND COMPANY, priority 2013, published 2015).

Experiments:
corn [1] = assay: Test A postemergence; assay type: in vivo, Zea mays
Outline: (§1)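 Growth medium: loam soil blended with sand. Preemergence treatment used a directed soil spray right after planting; postemergence treatment targeted seedlings at one to two leaves (2–10 cm height). Response was judged by eye relative to untreated plants about 10 days later on a 0–100 control scale.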

velvetleaf [2] = assay: Test A preemergence; assay type: in vivo, Abutilon theophrasti; details: 0 to 100 scale
Outline: as §1

velvetleaf [3] = assay: Test A postemergence; assay type: in vivo, Abutilon theophrasti
Outline: as §1

foxtail, giant [4] = assay: Test A preemergence; assay type: in vivo, Setaria faberii; details: 0 to 100 scale
Outline: as §1

morningglory [5] = assay: Test A postemergence; assay type: in vivo, Ipomoea spp.
Outline: as §1

crabgrass, large [6] = assay: Test A preemergence; assay type: in vivo, Digitaria sanguinalis; details: 0 to 100 scale
Outline: as §1

barnyardgrass [7] = assay: Test A preemergence; assay type: in vivo, Echinochloa crus-galli; details: 0 to 100 scale
Outline: as §1

morningglory [8] = assay: Test A preemergence; assay type: in vivo, Ipomoea spp.; details: 0 to 100 scale
Outline: as §1

wheat [9] = assay: Test A preemergence; assay type: in vivo, Triticum aestivum
Outline: as §1

corn [10] = assay: Test A preemergence; assay type: in vivo, Zea mays; details: 0 to 100 scale
Outline: as §1

foxtail, giant [11] = assay: Test A postemergence; assay type: in vivo, Setaria faberii
Outline: as §1

pigweed [12] = assay: Test A postemergence; assay type: in vivo, Amaranthus retroflexus
Outline: as §1

wheat [13] = assay: Test A postemergence; assay type: in vivo, Triticum aestivum
Outline: as §1

barnyardgrass [14] = assay: Test A postemergence; assay type: in vivo, Echinochloa crus-galli; details: Postemergence
Outline: as §1

pigweed [15] = assay: Test A preemergence; assay type: in vivo, Amaranthus retroflexus; details: 0 to 100 scale
Outline: as §1

crabgrass, large [16] = assay: Test A postemergence; assay type: in vivo, Digitaria sanguinalis
Outline: as §1

ducksalad = assay: Test B flood; assay type: in vivo, Heteranthera limosa; details: 250 g ai/ha, visual rating on 0 to 100 scale (0 no effect, 100 complete control), 13 to 15 days
Method: (§2) Seeds selected from rice (Oryza sativa), sedge, umbrella (small-flower umbrella sedge Cyperus difformis), ducksalad (Heteranthera limosa), and barnyardgrass (Echinochloa crus-galli) were grown to the 2-leaf stage for testing. At time of treatment, test pots were flooded to 3 cm above the soil surface, treated by application of test compounds directly to the paddy water, and then maintained at that water depth for the duration of the test.
(§3) Treated plants and controls were maintained in a greenhouse for 13 to 15 days, after which time all species were compared to controls and visually evaluated. Plant response ratings, summarized in Table B, are based on a scale of 0 to 100 where 0 is no effect and 100 is complete control. A dash (-) response means no test result.

rice = assay: Test B flood; assay type: in vivo, Oryza sativa; details: 250 g ai/ha, visual rating on 0 to 100 scale (0 no effect, 100 complete control), 13 to 15 days
Method: as §2, §3

sedge, umbrella = assay: Test B flood; assay type: in vivo, Cyperus difformis; details: 250 g ai/ha, visual rating on 0 to 100 scale (0 no effect, 100 complete control), 13 to 15 days
Method: as §2, §3

barnyardgrass [17] = assay: Test B flood; assay type: in vivo, Echinochloa crus-galli; details: 250 g ai/ha, visual rating on 0 to 100 scale (0 no effect, 100 complete control), 13 to 15 days
Method: as §2, §3

[18] = Postemergence, 1000 g ai/ha, visual rating after approx. 10 days, 0 to 100 scale (0 no effect, 100 complete control)
[19] = Preemergence, 1000 g ai/ha, 0 no effect, 100 complete control
[20] = Preemergence, 1000 g ai/ha, 0 to 100 scale, 0 no effect, 100 complete control
[21] = preemergence, 500 g ai/ha, visual injury after approx. 10 days, 0 to 100 scale (0 no effect, 100 complete control)
[22] = 1000 g ai/ha, visual rating after approx. 10 days, 0 to 100 scale (0 no effect, 100 complete control)
[23] = Postemergence, 500 g ai/ha, visual rating after approx. 10 days, 0 to 100 scale (0 no effect, 100 complete control)
[24] = postemergence, 125 g ai/ha, about 10 days, visual rating on 0 to 100 scale (0 no effect, 100 complete control)
[25] = Preemergence, 500 g ai/ha, 0 no effect, 100 complete control
[26] = preemergence, 125 g ai/ha, visual injury, approx. 10 days

Compound: CCCCN(C)C(=O)c1cc(CC)n(Cc2cccc(OC(F)(F)F)c2)n1 [Compound 63]
- Corn plant response rating (corn [1]; [18]): 20
- Velvetleaf plant response rating (velvetleaf [2]; [19]): 0
- Velvetleaf plant response rating (velvetleaf [3]; [18]): 30
- Foxtail, Giant plant response rating (foxtail, giant [4]; [19]): 0
- Morningglory plant response rating (morningglory [5]; [18]): 60
- Crabgrass, Large plant response rating (crabgrass, large [6]; [19]): 0
- Barnyardgrass plant response rating (barnyardgrass [7]; [19]): 0
- Morningglory plant response rating (morningglory [8]; [19]): 0
- Wheat plant response rating (wheat [9]; [20]): 0
- Wheat plant response rating (wheat [9]; [21]): 0
- Corn plant response rating (corn [10]; [19]): 0
- Foxtail, Giant plant response rating (foxtail, giant [11]; [18]): 20
- Pigweed plant response rating (pigweed [12]; [18]): 70
- Wheat plant response rating (wheat [13]; [18]): 10
- Barnyardgrass plant response rating (barnyardgrass [14]; [22]): 0
- Pigweed plant response rating (pigweed [15]; [19]): 0
- Crabgrass, Large plant response rating (crabgrass, large [16]; [18]): 10

Compound: CCc1cc(C(=O)NC)nn1Cc1cccc(OC(F)(F)F)c1 [Compound 65]
- Corn plant response rating (corn [1]; [18]): 30
- Velvetleaf plant response rating (velvetleaf [2]; [19]): 20
- Velvetleaf plant response rating (velvetleaf [3]; [18]): 30
- Foxtail, Giant plant response rating (foxtail, giant [4]; [19]): 70
- Morningglory plant response rating (morningglory [5]; [18]): 90
- Crabgrass, Large plant response rating (crabgrass, large [6]; [19]): 80
- Barnyardgrass plant response rating (barnyardgrass [7]; [19]): 60
- Morningglory plant response rating (morningglory [8]; [19]): 70
- Wheat plant response rating (wheat [9]; [20]): 0
- Wheat plant response rating (wheat [9]; [21]): 0
- Corn plant response rating (corn [10]; [19]): 0
- Foxtail, Giant plant response rating (foxtail, giant [11]; [18]): 50
- Pigweed plant response rating (pigweed [12]; [18]): 70
- Wheat plant response rating (wheat [13]; [18]): 20
- Barnyardgrass plant response rating (barnyardgrass [14]; [22]): 50
- Pigweed plant response rating (pigweed [15]; [19]): 90
- Crabgrass, Large plant response rating (crabgrass, large [16]; [18]): 50

Compound: CCc1cc(C(=O)N(C)OC)nn1Cc1cccc(OC(F)(F)F)c1 [Compound 67]
- Corn plant response rating (corn [1]; [18]): 30
- Velvetleaf plant response rating (velvetleaf [2]; [19]): 10
- Velvetleaf plant response rating (velvetleaf [3]; [18]): 30
- Foxtail, Giant plant response rating (foxtail, giant [4]; [19]): 90
- Morningglory plant response rating (morningglory [5]; [18]): 40
- Crabgrass, Large plant response rating (crabgrass, large [6]; [19]): 50
- Barnyardgrass plant response rating (barnyardgrass [7]; [19]): 0
- Morningglory plant response rating (morningglory [8]; [19]): 0
- Wheat plant response rating (wheat [9]; [20]): 0
- Wheat plant response rating (wheat [9]; [21]): 0
- Corn plant response rating (corn [10]; [19]): 0
- Foxtail, Giant plant response rating (foxtail, giant [11]; [18]): 40
- Pigweed plant response rating (pigweed [12]; [18]): 40
- Wheat plant response rating (wheat [13]; [18]): 20
- Barnyardgrass plant response rating (barnyardgrass [14]; [22]): 20
- Pigweed plant response rating (pigweed [15]; [19]): 0
- Crabgrass, Large plant response rating (crabgrass, large [16]; [18]): 30

Compound: CCc1cc(C(=O)N(C)CC)nn1Cc1cccc(OC(F)(F)F)c1 [Compound 68]
- Corn plant response rating (corn [1]; [18]): 30
- Velvetleaf plant response rating (velvetleaf [2]; [19]): 0
- Velvetleaf plant response rating (velvetleaf [3]; [18]): 40
- Foxtail, Giant plant response rating (foxtail, giant [4]; [19]): 60
- Morningglory plant response rating (morningglory [5]; [18]): 100
- Crabgrass, Large plant response rating (crabgrass, large [6]; [19]): 40
- Barnyardgrass plant response rating (barnyardgrass [7]; [19]): 0
- Morningglory plant response rating (morningglory [8]; [19]): 0
- Wheat plant response rating (wheat [9]; [20]): 0
- Wheat plant response rating (wheat [9]; [21]): 0
- Corn plant response rating (corn [10]; [19]): 0
- Foxtail, Giant plant response rating (foxtail, giant [11]; [18]): 20
- Pigweed plant response rating (pigweed [12]; [18]): 60
- Wheat plant response rating (wheat [13]; [18]): 20
- Barnyardgrass plant response rating (barnyardgrass [14]; [22]): 30
- Pigweed plant response rating (pigweed [15]; [19]): 70
- Crabgrass, Large plant response rating (crabgrass, large [16]; [18]): 30

Compound: CCCNC(=O)c1cc(C)n(Oc2ccnc(C(F)(F)F)c2)n1 [Compound 80]
- Corn plant response rating (corn [1]; [23]): 30
- Corn plant response rating (corn [1]; [24]): 10
- Velvetleaf plant response rating (velvetleaf [2]; [25]): 50
- Velvetleaf plant response rating (velvetleaf [2]; [26]): 0
- Velvetleaf plant response rating (velvetleaf [3]; [23]): 50
- Velvetleaf plant response rating (velvetleaf [3]; [24]): 10
- Plant response rating, Ducksalad (ducksalad): 0
- Foxtail, Giant plant response rating (foxtail, giant [4]; [25]): 90
- Foxtail, Giant plant response rating (foxtail, giant [4]; [26]): 40
- Morningglory plant response rating (morningglory [5]; [23]): 70
- Morningglory plant response rating (morningglory [5]; [24]): 30
- Crabgrass, Large plant response rating (crabgrass, large [6]; [25]): 100
- Crabgrass, Large plant response rating (crabgrass, large [6]; [26]): 50
- Barnyardgrass plant response rating (barnyardgrass [7]; [25]): 80
- Barnyardgrass plant response rating (barnyardgrass [7]; [26]): 10
- Morningglory plant response rating (morningglory [8]; [25]): 60
- Morningglory plant response rating (morningglory [8]; [26]): 20
- Wheat plant response rating (wheat [9]; preemergence, 125 g ai/ha, visual injury, 0 to 100 scale, approx. 10 days): 0
- Wheat plant response rating (wheat [9]; [21]): 10
- Plant response rating, Rice (rice): 0
- Corn plant response rating (corn [10]; [25]): 0
- Corn plant response rating (corn [10]; [26]): 0
- Foxtail, Giant plant response rating (foxtail, giant [11]; [23]): 30
- Foxtail, Giant plant response rating (foxtail, giant [11]; [24]): 10
- Pigweed plant response rating (pigweed [12]; [23]): 60
- Pigweed plant response rating (pigweed [12]; [24]): 40
- Plant response rating, Sedge, Umbrella (sedge, umbrella): 0
- Wheat plant response rating (wheat [13]; [23]): 10
- Wheat plant response rating (wheat [13]; [24]): 0
- Barnyardgrass plant response rating (barnyardgrass [14]; 125 g ai/ha, 0 to 100 scale, 0 no effect, 100 complete control): 10
- Barnyardgrass plant response rating (barnyardgrass [14]; 500 g ai/ha, visual rating after approx. 10 days, 0 to 100 scale (0 no effect, 100 complete control)): 40
- Plant response rating, Barnyardgrass (barnyardgrass [17]): 0
- Pigweed plant response rating (pigweed [15]; [25]): 100
- Pigweed plant response rating (pigweed [15]; [26]): 60
- Crabgrass, Large plant response rating (crabgrass, large [16]; [23]): 70
- Crabgrass, Large plant response rating (crabgrass, large [16]; [24]): 10
